Laboratory results taken from US20060069067A1, “Combination of an aromatase inhibitor with a bisphosphonate” (priority 2002, published 2006).

What was measured:
Format in all cases: in vivo, rat
letrozole-treated rats [1] = assay: pQCT monitoring of bone loss in the proximal tibia metaphysis of rats given daily oral letrozole
Experimental: (§1) It was investigated whether bone loss induced in rats by either ovariectomy (OVX) or the aromatase inhibitor letrozole (Let) could be prevented by the bisphosphonate zoledronic acid (Zol).
(§2) Material and Methods: Adult, skeletally mature, 8-month-old female Wistar rats were assigned to the following treatment groups […]: Sham (vehicle), OVX, Let-treated, OVX +Zol and Let+Zol. Zol was injected into the tail vein as a single dose of 0.8, 4 or 20 μg/kg 3 days before OVX or before initiating daily oral dosing of Let (1 mg/kg) for 24 weeks. Changes in total and cancellous bone mineral density (BMD) and cortical thickness in the proximal tibia metaphysis were monitored non-invasively by peripheral quantitative computed tomography (pQCT) at 0, 2, 4, 8, 12, 16, 20 and 24 weeks.

letrozole-treated rats [2] = assay: Compression test of the 5th lumbar vertebral body after letrozole administration
Experimental: as §2
(§3) Both tibiae, femora and lumbar vertebrae L1-L6 were harvested at necropsy in order to carry out biomechanical testing.
(§4) Mechanical properties of the 5th lumbar vertebral body were evaluated in compression after removal of the epiphyseal ends, posterior pedicle arch and spinous process on a 4 mm segment with piano-parallel ends.

OVX rats [3] = assay: pQCT monitoring of bone loss in the proximal tibia metaphysis of ovariectomized rats
Experimental: as §1, §2

OVX rats [4] = assay: Compression test of the 5th lumbar vertebral body after OVX; conditions: single iv 0.8, 4 or 20 μg/kg
Experimental: as §2, §3, §4

[5] = daily oral letrozole 1 mg/kg, at 24 weeks, P<0.01 vs sham
[6] = letrozole-treated rats, 4 μg/kg iv
[7] = letrozole-treated rats, highest dose (20 μg/kg iv), P<0.01 vs letrozole, NS vs sham

In the case of N#Cc1ccc(C(c2ccc(C#N)cc2)n2cncn2)cc1 [letrozole, 4-[α-(4-cyanophenyl)-1-(1,2,4-triazolyl)methyl]-benzonitrile], the “change in cancellous bone mineral density (cancellous bone loss)” value (letrozole-treated rats [1]; [5]) is reported as −26%, the “change in mean cortical thickness” value (letrozole-treated rats [1]; [5]) is reported as −21% and the “change in total BMD” value (letrozole-treated rats [1]; [5]) is reported as −13%. For the same compound, the “ultimate bone strength of 5th lumbar vertebral body” value (“ultimate bone strength” for short) (letrozole-treated rats [2]; daily oral letrozole 1 mg/kg for 24 weeks, NS) was “decreased”.
With O=P(O)(O)C(O)(Cn1ccnc1)P(=O)(O)O [zoledronic acid, 2-(imidazol-1yl)-1-hydroxyethane-1,1-diphosphonic acid] the “duration of full protection against cancellous bone loss” value (OVX rats [3]; highest dose (20 μg/kg iv)) was 20 weeks, the “duration of full protection of total BMD (NS vs sham)” value (OVX rats [3]; highest dose (20 μg/kg iv)) was 24 week and the “protection of cortical thickness (NS vs sham at all time points)” value (OVX rats [3]; highest dose (20 μg/kg iv), 24-week study) was “fully protective for the full duration of the study”. For the same compound, the “cancellous bone at 24 weeks” value (OVX rats [3]; highest dose (20 μg/kg iv), 24 weeks, NS vs sham) was “mild cancellous bone loss was visible”, the “time for which cancellous bone loss was delayed (marginally but significantly)” value (OVX rats [3]; single iv 0.8 μg/kg) was 12 weeks and the “protective effect on mean cortical thickness” value (OVX rats [3]; single iv 0.8 μg/kg, at 2 weeks, P<0.05 vs OVX) was “marginal protective effect”. For the same compound, the “time for which cancellous bone mineral density was significantly better than in OVX controls” value (OVX rats [3]; single iv 4 μg/kg) was 24 weeks, the “time for which cortical thickness was significantly better than in OVX controls” value (OVX rats [3]; single iv 4 μg/kg) was 12 weeks and the “time for which cancellous bone mineral density was significantly better than in OVX controls” value (OVX rats [3]; single iv 20 μg/kg) was 24 weeks. For the same compound, the “time for which cortical thickness was significantly better than in OVX controls” value (OVX rats [3]; single iv 20 μg/kg) was 24 weeks, the “time for which bone loss (total BMD) was delayed significantly” value (OVX rats [3]; single iv injection 0.8 μg/kg 3 days before OVX) was 8 weeks and the “time for which bone loss (total BMD) was delayed significantly” value (OVX rats [3]; single iv injection 4 μg/kg) was 20 weeks. The “time for which bone loss (total BMD) was delayed significantly” value (OVX rats [3]; single iv injection 20 μg/kg) was 24 weeks, the “time for which cancellous bone loss was fully prevented” value (letrozole-treated rats [1]; [6]) was 8 weeks and the “time for which cancellous bone mineral density remained significantly higher than in letrozole-treated rats” value (letrozole-treated rats [1]; [6]) was 24 weeks. The “time for which cortical thinning was fully prevented” value (letrozole-treated rats [1]; [6]) was 4 weeks, the “week until which cortical thickness stayed significantly above the letrozole control” value (letrozole-treated rats [1]; letrozole-treated rats, 4 μg/kg iv, P<0.01 vs letrozole) was 20 week and the “duration of full protection of total BMD (NS vs sham)” value (letrozole-treated rats [1]; letrozole-treated rats, highest dose (20 μg/kg iv)) was 24 week. The “duration of full protection against cancellous bone loss” value (letrozole-treated rats [1]; [7]) was 24 weeks, the “time for which cortical thinning was fully protected against” value (letrozole-treated rats [1]; [7]) was 24 weeks and the “time for which bone loss (total BMD) was delayed (marginally but significantly)” value (letrozole-treated rats [1]; letrozole-treated rats, single iv 0.8 μg/kg) was 4 weeks. The “time for which cancellous bone loss was delayed (marginally but significantly)” value (letrozole-treated rats [1]; letrozole-treated rats, single iv 0.8 μg/kg, P<0.05 vs letrozole) was 8 weeks, the “protective effect on mean cortical thickness” value (letrozole-treated rats [1]; letrozole-treated rats, single iv 0.8 μg/kg, at 2 weeks, P<0.05 vs letrozole) was “marginal but significant protective effect” and the “time for which bone loss (total BMD) was delayed significantly” value (letrozole-treated rats [1]; letrozole-treated rats, single iv 4 μg/kg, P<0.01 vs letrozole) was 24 weeks. The “time for which bone loss (total BMD) was delayed significantly” value (letrozole-treated rats [1]; letrozole-treated rats, single iv 20 μg/kg, P<0.01 vs letrozole) was 24 weeks, the “duration of full protection against Let-induced bone loss” value (letrozole-treated rats [1]; rats, dose of 20 μg/kg) was “at least 24 weeks” and the “protection against cancellous bone loss, cortical thinning and reduction of bone strength induced by daily oral Let” value (letrozole-treated rats [1]; rats, summary in discussion) was “dose-dependently protects”. The “protection against bone loss in rats treated with letrozole” value (letrozole-treated rats [1]; summary statement) was “long term protection against bone loss”, the “ultimate bone strength” value (OVX rats [4]) was “dose-dependently improved” and the “ultimate bone strength” value (letrozole-treated rats [2]; letrozole-treated rats, single iv 0.8, 4 or 20 μg/kg, compression) was “dose-dependently improved”.
